Experimental data as given in patent US8247573B2, “Substituted N-(2-mercaptopyridin-3-yl)amides as KCNQ2/3 modulators” (Gruenenthal GmbH, priority 2009, dated 2012).

Tests used:
KCNQ2/3 channels = target: T1, KCNQ2/3 channels (Homo sapiens, UniProt O43525+O43526); assay: Fluorescence assay using a voltage-sensitive dye (fluorimetry); format: cell-based; conditions: CHO-K1 cells expressing KCNQ2/3; for EC50: agonistic activity; for Emax: read-out: Fluorimetry % efficacy (I/EC50, retigabine = 100%)
T1 construct: expressed in transfected cells; host or cells: CHO-K1
Experimental: Pharmacological Experiments Fluorescence Assay Using a Voltage-Sensitive Dye
Human CHO-K1 cells expressing KCNQ2/3 channels are cultivated adherently at 37° C., 5% CO2 and 95% humidity in cell culture bottles (e.g. 80 cm^2 TC flasks, Nunc) with DMEM-high glucose (Sigma Aldrich, D7777) including 10% FCS (PAN Biotech, e.g. 3302-P270521) or alternatively MEM Alpha Medium (1×, liquid, Invitrogen, #22571), 10% foetal calf serum (FCS) (Invitrogen, #10270-106, heat-inactivated) and the necessary selection antibiotics.
Before being seeded out for the measurements, the cells are washed with a 1×DPBS buffer without Ca^2+/Mg^2+ (e.g. Invitrogen, #14190-094) and detached from the bottom of the culture vessel by means of Accutase (PAA Laboratories, #L11-007) (incubation with Accutase for 15 min at 37° C.). The cell count then present is determined using a CASY™ cell counter (TCC model, Schärfe System) in order subsequently to apply 20,000 to 30,000 cells/well/100 μl of the described nutrient medium, depending on density optimisation for the individual cell line, to 96-well measuring plates of the Corning™ CellBIND™ type (flat clear-bottom black polystyrene microplates, #3340). Incubation is then carried out for one hour at room temperature, without gassing or adjusting the humidity, followed by incubation for 24 hours at 37° C., 5% CO2 and 95% humidity.
The voltage-sensitive fluorescent dye from the Membrane Potential Assay Kit (Red™ bulk format part R8123 for FLIPR, MDS Analytical Technologies™) is prepared by dissolving the contents of a vessel of Membrane Potential Assay Kit Red Component A in 200 ml of extracellular buffer (ES buffer, 120 mM NaCl, 1 mM KCl, 10 mM HEPES, 2 mM CaCl2, 2 mM MgCl2, 10 mM glucose; pH 7.4). After removal of the nutrient medium, the cells are washed with 200 μl of ES buffer, then covered with a layer of 100 μl of the dye solution prepared above and incubated for 45 min at room temperature with exclusion of light.
The fluorescence measurements are carried out with a BMG Labtech FLUOstar™, BMG Labtech NOVOstar™ or BMG Labtech POLARstar™ instrument (525 nm excitation, 560 nm emission, bottom-read mode). After incubation of the dye, 50 μl of the substances to be tested in the desired concentrations, or 50 μl of ES buffer for control purposes, are introduced into separate cavities of the measuring plate and incubated for 30 min at room temperature whilst being shielded from light. The fluorescence intensity of the dye is then measured for 5 min and the fluorescence value F1 of each well is thus determined at a given, constant time. 15 μl of a […] KCl solution […] are then added to each well. The change in fluorescence is subsequently measured until all relevant measured values have been obtained (mainly […]). At a given time after KCl application, a fluorescence value F2 is determined, in this case at the time of the fluorescence peak.
For calculation, the fluorescence intensity F2 is compared with the fluorescence intensity F1, and the agonistic activity of the target compound on the potassium channel is determined therefrom. F2 and F1 are calculated as follows: […]
In order to determine whether a substance has an agonistic activity,
[formula] is determined by adding to the reaction batch only the buffer solution instead of the substance to be tested, determining the value F1K of the fluorescence intensity, adding the potassium ions as described above and measuring a value F2K of the fluorescence intensity. Then F2K and F1K are calculated as follows: […]
A substance has an agonistic activity on the potassium channel if
Independently of the comparison of
[formula] it is also possible to conclude that a target compound has an agonistic activity if an increase in
[formula] is to be observed as the dosage of the target compound increases.
Calculations of EC50 values are carried out with the aid of Prism v4.0 software (GraphPad Softwares™).

mice = assay: Formalin test in mice; format: in vivo; conditions: 4.64 mg/kg, phase 2 (chronic pain), change versus vehicle control
Experimental: The formalin test (Dubuisson, D. and Dennis, S. G., 1977, Pain, 4, 161-174) is a model for acute and chronic pain. A single formalin injection into the dorsal side of one rear paw is used to induce a biphase nociceptive response in experimental animals allowed to move freely, and the response is recorded by observation of three clearly distinguishable behaviour patterns. The response comprises two phases: phase 1=immediate response (duration up to 10 min; shaking of paw, licking), phase 2=delayed response (after a rest phase; likewise shaking of paw, licking; duration up to 60 min). […] In the experiments presented here the chronic pain component (phase 2) was evaluated.
Formalin is administered subcutaneously in a volume of 20 μl and a concentration of 1% into the dorsal side of the right rear paw of each animal. The specific behavioural changes, such as lifting, shaking or licking the paw (score 3, Dubuisson & Dennis, 1977), were observed and recorded during the observation period of 21 to 24 min after formalin injection. […]
Based on the quantification of the pain behaviour, the effect of the substance in the formalin test was determined as the change in comparison to the control as a percentage. […]

[1] = relative to retigabine = 100%, negative values = antagonistic

SMILES | EC50 (KCNQ2/3 channels) | Emax (KCNQ2/3 channels; [1]) | Fluorimetry % efficacy (I/EC50, retigabine = 100%) (KCNQ2/3 channels; [1]) | Formalin test in mice IV Effect @ dose [mg/kg] (mice)
O=C(Cc1cccs1)Nc1cccnc1SCCS(=O)(=O)c1cccc(C(F)(F)F)c1 [Example 3, 2-Thiophen-2-yl-N-[2-[2-[[3-(trifluoromethyl)phenyl]sulfonyl]-ethylsulfanyl]-pyridin-3-yl]acetamide] | 31 nM | 164% | – | 87% @ 4.64
O=C(Nc1cccnc1SCCS(=O)(=O)c1cccc(C(F)(F)F)c1)C1CCCCC1 [Example 19, N-[2-[2-[[3-(Trifluoromethyl)phenyl]sulfonyl]-ethylsulfanyl]-pyridin-3-yl]-cyclohexane carboxylic acid amide] | – | -43% | – | –
COc1ccc(CC(=O)Nc2cccnc2SCCS(=O)(=O)c2cccc(C(F)(F)F)c2)cc1 [Example 10, 2-(4-Methoxyphenyl)-N-[2-[2-[[3-(trifluoromethyl)phenyl]sulfonyl]-ethylsulfanyl]-pyridin-3-yl]acetamide] | 55 nM | 74% | – | –
O=C(Cc1ccc(O)cc1)Nc1cccnc1SCCS(=O)(=O)c1cccc(C(F)(F)F)c1 [Example 13, 2-(4-Hydroxyphenyl)-N-[2-[2-[[3-(trifluoromethyl)phenyl]sulfonyl]-ethylsulfanyl]-pyridin-3-yl]acetamide] | – | 46% | – | –
O=C(Cc1ccc2ccccc2c1)Nc1cccnc1SCCS(=O)(=O)c1cccc(C(F)(F)F)c1 [Example 24, 2-Naphthalen-2-yl-N-[2-[2-[[3-(trifluoromethyl)phenyl]sulfonyl]-ethylsulfanyl]-pyridin-3-yl]acetamide] | 153 nM | 84% | – | –
COc1cccc(CC(=O)Nc2cccnc2SCCS(=O)(=O)c2cccc(C(F)(F)F)c2)c1 [Example 11, 2-(3-Methoxyphenyl)-N-[2-[2-[[3-(trifluoromethyl)phenyl]sulfonyl]-ethylsulfanyl]-pyridin-3-yl]acetamide] | 588 nM | 109% | – | –
O=C(Cc1cccs1)Nc1cccnc1SCCOc1cccc(C(F)(F)F)c1 [Example 22, 2-Thiophen-2-yl-N-[2-[2-[3-(trifluoromethyl)-phenoxy]-ethylsulfanyl]-pyridin-3-yl]acetamide] | 732 nM | 155% | – | –

The next lines start with results.

EC50 (KCNQ2/3 channels) | Emax (KCNQ2/3 channels; [1]) | Fluorimetry % efficacy (I/EC50, retigabine = 100%) (KCNQ2/3 channels; [1]) | SMILES | Formalin test in mice IV Effect @ dose [mg/kg] (mice)
925 nM | 139% | – | O=C(Cc1cc2ccccc2s1)Nc1cccnc1SCCS(=O)(=O)c1cccc(C(F)(F)F)c1 [Example 59, 2-(Benzo[b]thiophen-2-yl)-N-[2-[2-[[3-(trifluoromethyl)phenyl]sulfonyl]-ethylsulfanyl]-pyridin-3-yl]acetamide] | –
18 nM | 114% | – | O=C(CC1CCCCCC1)Nc1cccnc1SCCS(=O)(=O)c1ccc(F)cc1 [Example 67, 2-Cycloheptyl-N-[2-[2-[(4-fluorophenyl)sulfonyl]-ethylsulfanyl]-pyridin-3-yl]acetamide] | –
546 nM | 119% | – | CC(C)(C)CC(=O)Nc1cccnc1SCCOc1ccc(F)cc1 [Example 63, N-[2-[2-(4-Fluorophenoxy)-ethylsulfanyl]-pyridin-3-yl]-3,3-dimethyl butyramide] | –
– | 50% | – | O=C(Cc1cccnc1)Nc1cccnc1SCCS(=O)(=O)c1cccc(C(F)(F)F)c1 [Example 46, 2-Pyridin-3-yl-N-[2-[2-[[3-(trifluoromethyl)phenyl]sulfonyl]-ethylsulfanyl]-pyridin-3-yl]acetamide] | –
106 nM | 32% | – | O=C(Nc1cccnc1SCCS(=O)(=O)c1cccc(C(F)(F)F)c1)c1ccc(F)cc1O [Example 51, 4-Fluoro-2-hydroxy-N-[2-[2-[[3-(trifluoromethyl)phenyl]sulfonyl]-ethylsulfanyl]-pyridin-3-yl]benzamide] | –
– | 35% | – | O=C(Nc1cccnc1SCCS(=O)(=O)c1cccc(C(F)(F)F)c1)C1CCCOC1 (stereo not shown) [Example 38, N-[2-[2-[[3-(Trifluoromethyl)phenyl]sulfonyl]-ethylsulfanyl]-pyridin-3-yl]-tetrahydropyrane-3-carboxylic acid amide] | –
480 nM | 148% | – | O=C(Nc1cccnc1SCCCc1ccc(F)cc1)c1ccc(F)c(F)c1 [Example 65, 3,4-Difluoro-N-[2-[3-(4-fluorophenyl)-propylsulfanyl]-pyridin-3-yl]benzamide] | –
349 nM | 98.1% | – | Cc1ccnc(SCCS(=O)(=O)c2cccc(C(F)(F)F)c2)c1NC(=O)Cc1cccs1 [Example 56, N-[4-Methyl-2-[2-[[3-(trifluoromethyl)phenyl]sulfonyl]-ethylsulfanyl]-pyridin-3-yl]-2-thiophen-2-yl acetamide] | –
174 nM | 93% | – | O=C(Nc1cccnc1SCCS(=O)(=O)c1cccc(C(F)(F)F)c1)C1CCCCO1 (stereo not shown) [Example 48, N-[2-[2-[[3-(Trifluoromethyl)phenyl]sulfonyl]-ethylsulfanyl]-pyridin-3-yl]-tetrahydropyrane-2-carboxylic acid amide] | –
– | – | 58% | O=C(Cc1cccs1)Nc1cccnc1SCCOc1ccccc1 [Example 45, N-[2-(2-Phenoxy-ethylsulfanyl)-pyridin-3-yl]-2-thiophen-2-yl acetamide] | –
– | 52% | – | O=C(CC1CCOCC1)Nc1cccnc1SCCS(=O)(=O)c1cccc(C(F)(F)F)c1 [Example 40, 2-Tetrahydropyran-4-yl-N-[2-[2-[[3-(trifluoromethyl)phenyl]sulfonyl]-ethylsulfanyl]-pyridin-3-yl]acetamide] | –
